Measurements taken from patent US5958945A, “Naphthamide derivatives of 3-beta-amino azabicyclo octane or nonane as neuroleptic agents” (Pierre Fabre Medicament, priority 1995, dated 1999).
pKi: −log10 of the molar value. Counter-ions that a name gives are not always drawn.

Experiments:
D2 receptor = assay: Binding: displacement of [^3 H] YM-09151-2 (D2 site); conditions: Ligand [^3 H] YM09151-2
From the text: (§1) This process for studying specific binding is described Naunyn-Schmiedeberg's Arch. Pharmacol. 329, 333-338, 1985 and Mol. Pharmacol. 21, 301-314, 1982.

5-HT2 receptor = 5-HT2 receptor (Rattus norvegicus, UniProt P14842); assay: Binding: displacement of [^3 H] Ketanserine (5-HT2 site); conditions: compared with the reference substances
From the text: as §1

Sequence of 5-HT2 receptor (P14842 whole entry): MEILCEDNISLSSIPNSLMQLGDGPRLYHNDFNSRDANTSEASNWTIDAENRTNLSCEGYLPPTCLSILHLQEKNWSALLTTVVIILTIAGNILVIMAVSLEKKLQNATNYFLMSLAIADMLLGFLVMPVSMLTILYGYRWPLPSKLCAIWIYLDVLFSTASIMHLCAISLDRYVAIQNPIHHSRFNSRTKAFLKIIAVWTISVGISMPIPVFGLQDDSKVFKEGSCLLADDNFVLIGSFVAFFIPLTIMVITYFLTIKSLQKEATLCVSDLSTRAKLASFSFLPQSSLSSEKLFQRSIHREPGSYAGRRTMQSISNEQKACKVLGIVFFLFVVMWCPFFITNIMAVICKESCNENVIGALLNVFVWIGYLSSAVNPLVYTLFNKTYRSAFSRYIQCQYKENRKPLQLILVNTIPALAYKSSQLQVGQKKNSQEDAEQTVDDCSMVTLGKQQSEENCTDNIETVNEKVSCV

Compound	pKi (D2 receptor)	affinity for the 5-HT2 receptor (in words) (5-HT2 receptor)
COc1c(C(=O)N[C@@H]2C[C@H]3CC[C@@H](C2)N3Cc2ccccc2)ccc2ccccc12 [Example 3, 1-Methoxy-N-[8-(phenylmethyl)-8-azabicyclo[3.2.1]oct-3-β-yl]-2-naphthalenecarboxamide]	9.84	
COc1c(C(=O)N[C@@H]2C[C@H]3CC[C@@H](C2)N3Cc2ccccc2)cc(Br)c2ccccc12 [Example 4, 4-Bromo-1-methoxy-N-[8-(phenylmethyl)-8-azabicyclo[3.2.1]oct-3-β-yl]-2-naphthalenecarboxamide oxalate]	9.11	
COc1c(C(=O)N[C@@H]2C[C@H]3CC[C@@H](C2)N3Cc2ccccc2)cc(Cl)c2ccccc12 [Example 5, 4-Chloro-1-methoxy-N-[8-(phenylmethyl)-8-azabicyclo[3.2.1]oct-3-β-yl)-2-naphthalenecarboxamide hydrochloride]	9.39	
CCOc1c(C(=O)N[C@@H]2C[C@H]3CC[C@@H](C2)N3Cc2ccccc2)cc(Br)c2ccccc12 [Example 13, 4-Bromo-1-ethoxy-N-[8-(phenylmethyl)-8-azabicyclo[3.2.1]oct-3-β-yl]-2-naphthalenecarboxamide hydrochloride]	9.03	
COc1c(C(=O)NC2CCN(Cc3ccccc3)CC2)ccc2ccccc12 [Patent EP 539,281 compound]	8.48	little or no 5-HT2 affinity
CCN1CCCC1CNC(=O)c1cc(S(N)(=O)=O)ccc1OC (stereo not drawn) [Sulpiride]	8.33	
COc1cccc(C(=O)N[C@@H]2C[C@H]3CC[C@@H](C2)N3Cc2ccccc2)c1OC [Tropapride]	9.97	little or no 5-HT2 affinity
